This is an account of results in patent US9221827B2, “Antimicrobial compounds and methods of making and using the same” (Melinta Therapeutics, Inc., priority 2011, dated 2015).

One experiment has as its system Escherichia coli strain ATCC25922. Nature of the experiment: standard microdilution assay to determine minimum inhibitory concentrations (MICs). The experiment is classed as cell-based. The settings on record: Escherichia coli strain ATCC25922, microdilution. As to the method: The in vitro activity of the compounds of the present invention can be determined. Antimicrobial testing is typically performed to determine the minimum inhibitory concentration (MIC). Minimum inhibitory concentrations (MICs) are determined by the microdilution method in a final volume of 100 μl according to protocols outlined by The Clinical and Laboratory Standards Institute (CLSI). Performance standards for reference strains are assessed within the same experimental design to maintain quality control. See, for example, Clinical Laboratory Standards Institute: Methods for dilution antimicrobial susceptibility tests for bacteria that grow aerobically M7-A8. Approved Standard-Eighth Edition. Wayne, Pa.: CLSI; December 2008; and Clinical Laboratory Standards Institute: Performance Standards for Antimicrobial Susceptibility Testing M100-S20; Approved Standard-Twentieth Edition. Wayne, Pa.: CLSI; June 2010.
The compounds of the present invention were tested for antimicrobial activity. […] The compounds were run against Escherichia coli strain ATCC25922 using a standard microdilution assay to determine minimum inhibitory concentrations (MICs). […] A “N/A” means that data is unavailable. It will be recognized by one skilled in the art that the compounds can be assessed against other bacterial organisms and that the presentation of data for activity against Escherichia coli is illustrative and in no way is intended to limit the scope of the present invention. The compounds of the present invention can be assayed against a range of other microorganisms depending upon the performance activity desired to be gathered. Furthermore, the “+”, “−”, and “N/A” representation and the selection of a cutoff value of 16 micrograms/ml is also illustrative and in no way is intended to limit the scope of the present invention.
For `N=C(N)NCCCNCc1ccc(-n2cc3cc(-c4cc(CCC5(CN)CCC5)cc(F)c4Cl)[nH]c3nc2=O)cc1` [Compound 138], the “E. coli ATCC25922 MIC” value was “+ (a “+” indicates that the compound has an MIC value of 16 micrograms/ml or less)”.
`Cc1cc(-c2cc3cn(-c4ccc(CNCCCN=C(N)N)cc4)c(=O)nc3[nH]2)cc(CCCCNC(=N)N)c1F` [Compound 74]: the “E. coli ATCC25922 MIC” value was “+ (a “+” indicates that the compound has an MIC value of 16 micrograms/ml or less)”.
Take `COC(CCCN)c1cc(OC(F)(F)F)cc(-c2cc3cn(-c4ccc(CNCCCNC(=N)N)cc4)c(=O)nc3[nH]2)c1` (centres unmarked) [Compound 216]: the “E. coli ATCC25922 MIC” value is “+ (a “+” indicates that the compound has an MIC value of 16 micrograms/ml or less)”.
As to `COc1cc(CCCCN)cc(-c2cc3cn(-c4ccc(CNCCCNC(=N)N)cc4)c(=O)nc3[nH]2)c1` [Compound 14], the “E. coli ATCC25922 MIC” value is “+ (a “+” indicates that the compound has an MIC value of 16 micrograms/ml or less)”.
As to `COC(=O)C(NCCCNC(=N)N)c1ccc(-n2cc3cc(-c4cc(CCCC(C)N)cc(SC(F)(F)F)c4)[nH]c3nc2=O)cc1` (centres unmarked) [Compound 498], the “E. coli ATCC25922 MIC” value was “+ (a “+” indicates that the compound has an MIC value of 16 micrograms/ml or less)”.
In the case of `NCCCCc1cc(OC(F)(F)F)cc(-c2cc3cn(-c4ccc(CNCCCN=C(N)N)cc4F)c(=O)nc3[nH]2)c1` [Compound 90], the “E. coli ATCC25922 MIC” value was “+ (a “+” indicates that the compound has an MIC value of 16 micrograms/ml or less)”.
On the same count and under the same terms, as for `N=C(N)NCCCNCc1ccc(-n2cc3cc(-c4cc(CCC5(CN)CCC5)cc(OC(F)(F)F)c4)[nH]c3nc2=O)cc1` [Compound 96], the entry is “+ (a “+” indicates that the compound has an MIC value of 16 micrograms/ml or less)”.
For the molecule `N=C(N)NCCCNCc1ccc(-n2cc3cc(-c4cc(C5CC5CN)cc(C(F)(F)F)c4)[nH]c3nc2=O)cc1` (centres unmarked) [Compound 110], the “E. coli ATCC25922 MIC” value was “+ (a “+” indicates that the compound has an MIC value of 16 micrograms/ml or less)”.
Take `CC(N)CCCc1cc(Cl)c(F)c(-c2cc3cn(-c4ccc(C(CC(=O)O)NCCCNC(=N)N)cc4)c(=O)nc3[nH]2)c1` (centres unmarked) [Compound 489]: the “E. coli ATCC25922 MIC” value is “+ (a “+” indicates that the compound has an MIC value of 16 micrograms/ml or less)”.
Same read-out and setting: as for `C[C@@H](N)CCCc1cc(-c2cc3cn(-c4ccc(CNCCCNC(=N)N)cc4)c(=O)nc3[nH]2)cc(C(F)(F)F)c1` [Compound 249], the entry is “+ (a “+” indicates that the compound has an MIC value of 16 micrograms/ml or less)”; as for `NCCCCc1cc(OC(F)(F)F)c(Cl)c(-c2cc3cn(-c4ccc(CNCCCN=C(N)N)cc4)c(=O)nc3[nH]2)c1` [Compound 65], “+ (a “+” indicates that the compound has an MIC value of 16 micrograms/ml or less)”.
The same measure, in the same setting: under `CS(=O)(=O)c1cc(CCCCN)cc(-c2cc3cn(-c4ccc(CNCCCNC(=N)N)cc4)c(=O)nc3[nH]2)c1` [Compound 33] stands “+ (a “+” indicates that the compound has an MIC value of 16 micrograms/ml or less)”; under `CC(N)CCCc1cc(Cl)c(F)c(-c2cc3cn(-c4ccc(C5(NCCCNC(=N)N)CC5)cc4)c(=O)nc3[nH]2)c1` (centres unmarked) [Compound 486], “+ (a “+” indicates that the compound has an MIC value of 16 micrograms/ml or less)”.

The experiment is the same for the next values; noted with them: Escherichia coli strain ATCC25922, standard microdilution assay.
Turning to `N=C(N)NCCCNCc1ccc(-n2cc3cc(-c4cc(C5CCC(CN)CC5)cc(Cl)c4F)[nH]c3nc2=O)cc1` (centres unmarked) [Compound 450], the “E. coli ATCC25922 MIC” value is “+ (a “+” indicates that the compound has an MIC value of 16 micrograms/ml or less)”.
Turning to `CC(N)CCCc1cc(OC(F)(F)F)cc(-c2cc3cn(-c4ccc(C(C)N)cc4)c(=O)nc3[nH]2)c1` (centres unmarked) [Compound 356], the “E. coli ATCC25922 MIC” value was “− (a “−” indicates that the compound has an MIC value greater than 16 micrograms/ml)”.
On to `CCC(N)CCCc1cc(SC(F)(F)F)cc(-c2cc3cn(-c4ccc(CNCCCNC(=N)N)cc4)c(=O)nc3[nH]2)c1` (centres unmarked) [Compound 380], for which the “E. coli ATCC25922 MIC” value is given as “+ (a “+” indicates that the compound has an MIC value of 16 micrograms/ml or less)”.
The same measure, in the same setting: under `N=C(N)NCCCNCc1ccc(-n2cc3cc(-c4cc(C5CCC(CN)CC5)cc(C(F)(F)F)c4)[nH]c3nc2=O)cc1` (mixture of isomers) [Compound 429] stands “+ (a “+” indicates that the compound has an MIC value of 16 micrograms/ml or less)”; under `CC(N)C(C)OCc1cc(OC(F)(F)F)cc(-c2cc3cn(-c4ccc(CNCCCNC(=N)N)cc4)c(=O)nc3[nH]2)c1` (centres unmarked) [Compound 418], “+ (a “+” indicates that the compound has an MIC value of 16 micrograms/ml or less)”.
`CC(NCCCNC(=N)N)c1ccc(-n2cc3cc(-c4cc(CC5CCC(N)C5)cc(Cl)c4F)[nH]c3nc2=O)cc1` (mixture of isomers) [Compound 421]: the “E. coli ATCC25922 MIC” value is “+ (a “+” indicates that the compound has an MIC value of 16 micrograms/ml or less)”.
Turning to `CC(N)COCc1cc(Cl)c(F)c(-c2cc3cn(-c4ccc(CNCCCNC(=N)N)cc4)c(=O)nc3[nH]2)c1` (centres unmarked) [Compound 375], the “E. coli ATCC25922 MIC” value is “+ (a “+” indicates that the compound has an MIC value of 16 micrograms/ml or less)”.
Take `C[C@H](N)CCCc1cc(-c2cc3cn(-c4ccc([C@H](C)NCCCNC(=N)N)cc4)c(=O)nc3[nH]2)cc2c1CCCC2` [Compound 417]: the “E. coli ATCC25922 MIC” value is “+ (a “+” indicates that the compound has an MIC value of 16 micrograms/ml or less)”.
In the case of `CCC[C@H](NCCCNC(=N)N)c1ccc(-n2cc3cc(-c4cc(CCC[C@H](C)N)cc(SC(F)(F)F)c4)[nH]c3nc2=O)cc1` [Compound 416], the “E. coli ATCC25922 MIC” value is given as “+ (a “+” indicates that the compound has an MIC value of 16 micrograms/ml or less)”.
Same read-out and setting: under `CCC(N)CCCc1cc(Cl)c(F)c(-c2cc3cn(-c4ccc(C(C)NCCCNC(=N)N)cc4)c(=O)nc3[nH]2)c1` (centres unmarked) [Compound 374] stands “+ (a “+” indicates that the compound has an MIC value of 16 micrograms/ml or less)”; under `CC(N)CCCc1cc(Cl)c(F)c(-c2cc3cn(-c4ccc(C(C)NCCCNC(N)=NC5CCC5)cc4)c(=O)nc3[nH]2)c1` (centres unmarked) [Compound 368], “+ (a “+” indicates that the compound has an MIC value of 16 micrograms/ml or less)”.
As for `CCC(N)CCCc1cc(SC(F)(F)F)cc(-c2cc3cn(-c4ccc(C(C)NCCCNC(=N)N)cc4)c(=O)nc3[nH]2)c1` (centres unmarked) [Compound 381], the “E. coli ATCC25922 MIC” value is “+ (a “+” indicates that the compound has an MIC value of 16 micrograms/ml or less)”.
Regarding `C[C@H](N)c1ccc(-n2cc3cc(-c4cc(CCCC(C)(C)N)cc(Cl)c4F)[nH]c3nc2=O)cc1` [Compound 373], the “E. coli ATCC25922 MIC” value is on record as “− (a “−” indicates that the compound has an MIC value greater than 16 micrograms/ml)”.
With `CC(NCCCNC(=N)N)c1ccc(-n2cc3cc(-c4cc(CC5CCC(N)C5)cc(SC(F)(F)F)c4)[nH]c3nc2=O)cc1` (mixture of isomers) [Compound 420], the “E. coli ATCC25922 MIC” value was “+ (a “+” indicates that the compound has an MIC value of 16 micrograms/ml or less)”.
Regarding `N=C(N)NCCCNCc1ccc(-n2cc3cc(-c4cc(OC(F)(F)F)cc(C5CCC(CN)O5)c4)[nH]c3nc2=O)cc1` (centres unmarked) [Compound 437], the “E. coli ATCC25922 MIC” value is “+ (a “+” indicates that the compound has an MIC value of 16 micrograms/ml or less)”.
For `CC(CN)SCc1cc(SC(F)(F)F)cc(-c2cc3cn(-c4ccc(C(C)NCCCNC(=N)N)cc4)c(=O)nc3[nH]2)c1` (centres unmarked) [Compound 337], the “E. coli ATCC25922 MIC” value is on record as “+ (a “+” indicates that the compound has an MIC value of 16 micrograms/ml or less)”.
